Source: ChEMBL document CHEMBL1122225, “Synthesis and platelet aggregation inhibiting activity of prostaglandin D analogues” (J Med Chem, 1983)
≈ marks a conversion by molar mass, not a printed value.

Species: Homo sapiens
Experiment: In vitro inhibition of ADP-induced platelet aggregation in human platelet rich plasma.
Type: functional

Row | IC50 [µg/mL] | Compound
1 | 0.0032 (≈ 0.00957 µM) | CCCCC[C@H](O)/C=C/C1C(=O)C=C[C@@H]1C/C=C\CCCC(=O)O (stereo partly drawn)
2 | 0.32 (≈ 0.873 µM) | CCCCC[C@](C)(O)/C=C/C1C(=O)C[C@H](O)[C@@H]1C/C=C\CCCC(=O)O (stereo partly drawn)
3 | 0.1 (≈ 0.284 µM) | CCCCC[C@H](O)C/C=C1/C(=O)C[C@H](O)[C@@H]1C/C=C\CCCC(=O)O
4 | 0.032 (≈ 0.0898 µM) | CCCCC[C@H](O)/C=C/C1C(=O)C[C@H](O)[C@@H]1CCOCCCC(=O)O (stereo partly drawn)
5 | 0.032 (≈ 0.0957 µM) | CCCCC[C@H](O)/C=C/C1C(=O)CC2OC(=O)CCC/C=C\C[C@@H]21 (stereo partly drawn)
6 | 0.0001 (≈ 0.000284 µM) | CCCCC[C@H](O)/C=C/C1C(=O)CC(O)[C@@H]1C/C=C\CCCC(=O)O (stereo partly drawn)
7 | 0.0032 (≈ 0.00908 µM) | CCCCC[C@H](O)/C=C/[C@H]1C(=O)C[C@H](O)[C@@H]1C/C=C/CCCC(=O)O [[3H]PGD2]
8 | 3.2 (≈ 8.98 µM) | CCCCC[C@H](O)CCC1C(=O)C[C@H](O)[C@@H]1CCCCCCC(=O)O (stereo partly drawn)
9 | 0.32 (≈ 0.903 µM) | CCCCC[C@H](O)/C=C/C1C(=O)C[C@H](O)[C@@H]1CCCCCCC(=O)O (stereo partly drawn)
10 | 0.001 (≈ 0.00297 µM) | CCCCC[C@H](O)/C=C/C1C(=O)CC[C@@H]1C/C=C\CCCC(=O)O (stereo partly drawn)

The next lines start with the molecule.

Row | Compound | IC50 [µg/mL]
11 | CC/C=C\C[C@H](O)/C=C/C1C(=O)C[C@H](O)[C@@H]1C/C=C\CCCC(=O)O (stereo partly drawn) | 0.0032 (≈ 0.00913 µM)
12 | CCCCC[C@](C)(O)/C=C/C1C(=O)C=C[C@@H]1C/C=C\CCCC(=O)O (stereo partly drawn) | 1 (≈ 2.87 µM)
13 | CCCCC[C@@H]1/C=C\C2C(=O)CC(O)[C@@H]2C/C=C\CCCC(=O)O1 (stereo partly drawn) | 1 (≈ 2.99 µM)
14 | CCCCC/C=C/C=C1/C(=O)C[C@H](O)[C@@H]1C/C=C\CCCC(=O)O | 0.32 (≈ 0.957 µM)
15 | O=C(O)CCC/C=C\C[C@@H]1C(/C=C/[C@@H](O)CCc2ccccc2)C(=O)C[C@@H]1O (stereo partly drawn) | 3.2 (≈ 8.28 µM)
16 | CCCCC[C@H](O)/C=C/C1C(=O)C[C@H](O)[C@@H]1C/C=C\CCCCCC(=O)O (stereo partly drawn) | 1 (≈ 2.63 µM)

System: not listed separately
Experiment: Relative potency with respect to PGF2-alpha = 100 in rat blood pressure assay

Row | Compound | Relative potency
17 | CCCCC[C@](C)(O)/C=C/C1C(=O)C[C@H](O)[C@@H]1C/C=C\CCCC(=O)O (stereo partly drawn) | 32
18 | CCCCC(C)(C)[C@H](O)/C=C/C1C(=O)C[C@H](O)[C@@H]1C/C=C\CCCC(=O)O (stereo partly drawn) | 32
19 | CCCCC[C@H](O)CCC1C(=O)C[C@H](O)[C@@H]1CCCCCCC(=O)O (stereo partly drawn) | 0.3
20 | O=C(O)CCC/C=C\C[C@@H]1C(/C=C/[C@@H](O)CCc2ccccc2)C(=O)C[C@@H]1O (stereo partly drawn) | 32

System: not listed separately
Experiment: Relative potency with respect to PGE1 = 100 in rat blood pressure assay
Type: functional

Row | Compound | Relative potency
21 | CCCCC[C@H](O)/C=C/C1C(=O)C=C[C@@H]1C/C=C\CCCC(=O)O (stereo partly drawn) | 10
22 | CC/C=C\C[C@H](O)/C=C/C1C(=O)C[C@H](O)[C@@H]1C/C=C\CCCC(=O)O (stereo partly drawn) | 10
23 | CCCCC[C@H](O)C/C=C1/C(=O)C[C@H](O)[C@@H]1C/C=C\CCCC(=O)O | 10
24 | CCCCC[C@H](O)/C=C/C1C(=O)CC2OC(=O)CCC/C=C\C[C@@H]21 (stereo partly drawn) | 1
25 | CCCCC[C@H](O)/C=C/C1C(=O)CC(O)[C@@H]1C/C=C\CCCC(=O)O (stereo partly drawn) | 10
26 | CCCCC[C@](C)(O)/C=C/C1C(=O)C=C[C@@H]1C/C=C\CCCC(=O)O (stereo partly drawn) | 0.1
27 | CCCCC[C@H](O)/C=C/[C@H]1C(=O)C[C@H](O)[C@@H]1C/C=C/CCCC(=O)O [[3H]PGD2] | 10
28 | CCCCC[C@@H]1/C=C\C2C(=O)CC(O)[C@@H]2C/C=C\CCCC(=O)O1 (stereo partly drawn) | 0.1
29 | CCCCC/C=C/C=C1/C(=O)C[C@H](O)[C@@H]1C/C=C\CCCC(=O)O | 0.1
30 | CCCCC[C@H](O)/C=C/C1C(=O)C[C@H](O)[C@@H]1CCCCCCC(=O)O (stereo partly drawn) | 0.1
31 | CCCCC[C@H](O)/C=C/C1C(=O)CC[C@@H]1C/C=C\CCCC(=O)O (stereo partly drawn) | 10

System: not listed separately
Experiment: Potency in gerbil colon stimulation assay compared to PGE1.
Type: functional

Row | Compound | Relative potency
32 | CCCCC[C@H](O)/C=C/C1C(=O)C=C[C@@H]1C/C=C\CCCC(=O)O (stereo partly drawn) | 0.1
33 | CCCCC[C@](C)(O)/C=C/C1C(=O)C[C@H](O)[C@@H]1C/C=C\CCCC(=O)O (stereo partly drawn) | 10
34 | CC/C=C\C[C@H](O)/C=C/C1C(=O)C[C@H](O)[C@@H]1C/C=C\CCCC(=O)O (stereo partly drawn) | 1
35 | CCCCC[C@H](O)C/C=C1/C(=O)C[C@H](O)[C@@H]1C/C=C\CCCC(=O)O | 1
36 | CCCCC[C@H](O)/C=C/C1C(=O)C[C@H](O)[C@@H]1CCOCCCC(=O)O (stereo partly drawn) | 0.3
37 | CCCCC[C@H](O)/C=C/C1C(=O)CC2OC(=O)CCC/C=C\C[C@@H]21 (stereo partly drawn) | 0.3
38 | CCCCC[C@H](O)/C=C/C1C(=O)CC(O)[C@@H]1C/C=C\CCCC(=O)O (stereo partly drawn) | 0.3
39 | CCCCC[C@](C)(O)/C=C/C1C(=O)C=C[C@@H]1C/C=C\CCCC(=O)O (stereo partly drawn) | 0.3
40 | CCCCC[C@H](O)/C=C/[C@H]1C(=O)C[C@H](O)[C@@H]1C/C=C/CCCC(=O)O [[3H]PGD2] | 3
41 | CCCCC(C)(C)[C@H](O)/C=C/C1C(=O)C[C@H](O)[C@@H]1C/C=C\CCCC(=O)O (stereo partly drawn) | 3
42 | CCCCC[C@H](O)CCC1C(=O)C[C@H](O)[C@@H]1CCCCCCC(=O)O (stereo partly drawn) | 0.1
43 | CCCCC[C@@H]1/C=C\C2C(=O)CC(O)[C@@H]2C/C=C\CCCC(=O)O1 (stereo partly drawn) | 0.1
44 | CCCCC/C=C/C=C1/C(=O)C[C@H](O)[C@@H]1C/C=C\CCCC(=O)O | <0.1
45 | CCCCC[C@H](O)/C=C/C1C(=O)C[C@H](O)[C@@H]1CCCCCCC(=O)O (stereo partly drawn) | 3
46 | O=C(O)CCC/C=C\C[C@@H]1C(/C=C/[C@@H](O)CCc2ccccc2)C(=O)C[C@@H]1O (stereo partly drawn) | 10
47 | CCCCC[C@H](O)/C=C/C1C(=O)CC[C@@H]1C/C=C\CCCC(=O)O (stereo partly drawn) | 1
48 | CCCCC[C@H](O)/C=C/C1C(=O)C[C@H](O)[C@@H]1C/C=C\CCCCCC(=O)O (stereo partly drawn) | <0.1
